Reference: PMC8235661, “Photoelectric Dye, NK-5962, as a Potential Drug for Preventing Retinal Neurons from Apoptosis: Pharmacokinetic Studies Based on Review of the Evidence” (Life, 2021)
Where “and” joins values, the source holds several entries; their conditions need not be identical. Identical values can stand only once. Like-named read-outs stand apart in the source and are kept apart here.

Experiment: In vivo pharmacokinetics, oral administration
Parameters: species or system rat
Conditions: for Kp at 8 h: eye ball / plasma, read-out: Eye Ball/Plasma Ratio(Kp); for bioavailability: oral, read-out: absolute bioavailability
Description: Male Sprague Dawley (SD) and Wistar rats (5-week old) were obtained from Charles River Laboratories Japan (Yokohama, Japan) and Japan SLC, Inc. (Hamamatsu, Japan), respectively. All animals were maintained in air-conditioned quarters with room temperatures of 20 ± 2 °C, relative humidity of 50 ± 10%, and an alternating 12 h light/dark cycle. The rats were fed a certified diet MF (Oriental Yeast Co., Tokyo, Japan) and water ad libitum. The studies were conducted in accordance with the guidelines provided by the Animal Care and Use Committee of Osaka University (Identifier DouyakuR01-3-1).
A test compound (NK-5962) solution in 50% DMSO/water was injected intravenously (i.v.) to male SD rats. A test compound suspension in 0.5% methyl cellulose was administered orally (p.o.) to male Wistar rats. The dosage of the test compound was 1 mg/2 mL/kg (i.v.) and 10 or 100 mg/10 mL/kg (p.o.). Blood samples were collected from the jugular vein at 5 and 15 min and 1 h (i.v.) by using pre-heparinized syringe after the intravenous administration or from the caudal vein at 15 and 30 min, 1, 2 and 4 h (p.o.) by using heparinized capillary tube after the oral administration. At 30 min and 2 h (i.v.) or 8 h (p.o.), blood samples were collected from the abdominal aorta under isoflurane anesthesia and the eye balls and the whole brain were excised immediately.
Plasma was prepared by centrifugation of the blood samples. Plasma and tissues were stored at −80 °C. The tissues were homogenized with a four-fold volume of phosphate-buffered saline to obtain a 20% tissue homogenate. Plasma and 20% tissue homogenates were precipitated with 4–20 volumes of acetonitrile/IS and centrifuged at 15,000× g at 4 °C for 10 min. The supernatants were analyzed by liquid chromatography and tandem mass spectrometry (LC-MS/MS). Standard non-compartmental analysis was performed to determine the pharmacokinetic parameters: elimination half-life (t1/2) and area under the concentration time curve from time zero to infinity (AUC∞). The absolute bioavailability (BA) of the oral dose was calculated as AUC∞ (p.o.)/AUC∞ (i.v.).
Liquid chromatography and tandem mass spectrometry instrument (LC-MS8060) equipped with Shimadzu Nexera series LC system (Shimadzu, Kyoto, Japan) were used. All compounds were analyzed in multi-reaction monitoring mode under electron spray ionization conditions. The analytical column used was a […] C18 MGIII (3 μm × 2.0 mmID × 35 mm; OSAKA SODA, Osaka, Japan) at 50 °C. The gradient mobile phase consisted of 0.1% formic acid in water (mobile phase A) and 0.1% formic acid in acetonitrile (mobile phase B) at a total flow rate of 1 mL/minute. The initial mobile phase composition was 10% B, which was held constant for 0.2 min, increased in a linear fashion to 90% B over 1 min, then held constant for 0.8 min, and then finally brought back to the initial condition of 10% B over 0.01 min and re-equilibrated for 1 min. The transitions (precursor ion > product ion) of NK-5962 and IS (methyl testosterone) are 433.2 > 279.2 and 303.1 > 109.1 (positive), respectively.

With `CCCCN(CCCC)c1ccc(C=Cc2sc3ccccc3[n+]2CC(=O)O)cc1.[Br-]` [NK-5962, 2-[2-[4-(dibutylamino)phenyl]ethenyl]-3-carboxymethylbenzothiazolium bromide] the “maximum plasma concentration after the oral administration” value (excluding the 8 h values suspected of contamination) was 17 nM, the “maximum eye ball concentration expected after oral administration” value (from maximum plasma concentration and eye ball/plasma ratio 0.072) was 1.3 nM and the Kp at 8 h (male, Wistar, oral 10 mg/kg, single rat) was less than 0.059. It also gave a Kp at 8 h (male, Wistar, oral 100 mg/kg, single rat) of 0.072, a concentration at 8 h (male, Wistar, rat, eye ball, po, 10 mg/kg, oral 10 mg/kg, single rat, read-out: Eye Ball Concentration) of less than 0.1 nM and a concentration at 8 h (male, Wistar, rat, eye ball, po, 100 mg/kg, oral 100 mg/kg, single rat, read-out: Eye Ball Concentration) of 0.33 nM. It also gave a bioavailability (male, Wistar, rat, plasma, 10 mg/kg) of less than 1%, a bioavailability (male, Wistar, rat, plasma, 100 mg/kg) of less than 1% and a concentration at 0.25 h (male, Wistar, rat, plasma, po, 10 mg/kg, oral 10 mg/kg, 0.25 h, single rat) of 2.42 nM. The concentration at 0.5 h (male, Wistar, rat, plasma, po, 10 mg/kg, oral 10 mg/kg, 0.5 h, single rat) was 1.51 nM, the concentration at 1 h (male, Wistar, rat, plasma, po, 10 mg/kg, oral 10 mg/kg, 1 h, single rat) was 2.11 nM and the concentration at 2 h (male, Wistar, rat, plasma, po, 10 mg/kg, oral 10 mg/kg, 2 h, single rat) was 1.76 nM. It also gave a concentration at 4 h (male, Wistar, rat, plasma, po, 10 mg/kg, oral 10 mg/kg, 4 h, single rat) of 0.8 nM, a concentration at 8 h (male, Wistar, rat, plasma, po, 10 mg/kg, oral 10 mg/kg, single rat, * value deemed erroneous by contamination, read-out: Plasma Concentration) of 1.69 nM and a concentration at 0.25 h (male, Wistar, rat, plasma, po, 100 mg/kg, oral 100 mg/kg, 0.25 h, single rat) of 11.7 nM. The concentration at 0.5 h (male, Wistar, rat, plasma, po, 100 mg/kg, oral 100 mg/kg, 0.5 h, single rat) was 14.6 nM, the concentration at 1 h (male, Wistar, rat, plasma, po, 100 mg/kg, oral 100 mg/kg, 1 h, single rat) was 17 nM and the concentration at 2 h (male, Wistar, rat, plasma, po, 100 mg/kg, oral 100 mg/kg, 2 h, single rat) was 17.2 nM. For the same compound, the concentration at 8 h (male, Wistar, rat, plasma, po, 100 mg/kg, oral 100 mg/kg, single rat, * value deemed erroneous by contamination, read-out: Plasma Concentration) was 4.57 nM, the “Plasma Concentration” value (oral 10 mg/kg, 0.25 h, single rat, 10 mg/kg) was 1.71 nM and the “Plasma Concentration” value (oral 10 mg/kg, 0.5 h, single rat, 10 mg/kg) was 1.90 nM. The “Plasma Concentration” value (oral 10 mg/kg, 1 h, single rat, 10 mg/kg) was 2.26 nM, the “Plasma Concentration” value (oral 10 mg/kg, 2 h, single rat, 10 mg/kg) was 1.51 nM and the “Plasma Concentration” value (oral 10 mg/kg, 4 h, single rat, 10 mg/kg) was 1.20 nM. For the same compound, the “Plasma Concentration” value (oral 100 mg/kg, 0.25 h, single rat, 100 mg/kg) was 6.17 nM, the “Plasma Concentration” value (oral 100 mg/kg, 0.5 h, single rat, 100 mg/kg) was 11.15 nM and the “Plasma Concentration” value (oral 100 mg/kg, 1 h, single rat, 100 mg/kg) was 17.43 nM. The “Plasma Concentration” value (oral 100 mg/kg, 2 h, single rat, 100 mg/kg) was 11.51 nM, the “Plasma Concentration” value (oral 100 mg/kg, 4 h, single rat, 100 mg/kg) was 11.52 nM and 5.75 nM and the concentration at 8 h (oral 100 mg/kg, single rat, 100 mg/kg, read-out: Eye Ball Concentration) was 0.40 nM.
